Common to all, as to type: cell-based
One assay addresses T1, RAR alpha (Homo sapiens, UniProt P10276).
T1 sequence (P10276 183-417 limits assumed): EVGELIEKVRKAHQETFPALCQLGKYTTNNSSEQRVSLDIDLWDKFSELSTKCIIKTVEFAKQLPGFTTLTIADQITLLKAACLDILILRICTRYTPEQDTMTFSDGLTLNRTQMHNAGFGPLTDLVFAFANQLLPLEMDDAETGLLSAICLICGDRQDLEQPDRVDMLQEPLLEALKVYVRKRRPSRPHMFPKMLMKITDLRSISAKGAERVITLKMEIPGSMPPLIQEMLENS
The experiment in a line: Transactivation test (luciferase reporter, HeLa cells), RAR alpha. The settings on record: HeLa stable transfectants; for Kd: Schild regression against reference agonist 4-[2-(5,5,8,8-tetramethyl-5,6,7,8-tetrahydro-2-naphthyl)propenyl]benzoic acid, read-out: RAR alpha Kdapp; for IC50: reference ligand at the concentration that gives 80% activation. How it is done:
(§1) The activation of receptors with an agonist (activator) in HeLa cells leads to the expression of a reporter gene, luciferase, which, in the presence of a substrate, generates light. The activation of the receptors may thus be measured by quantifying the luminescence produced after incubating the cells in the presence of a reference agonist. The inhibitory products displace the agonist from its site, thus preventing activation of the receptor. The activity is measured by quantifying the reduction in light produced. This measurement makes it possible to determine the inhibitory activity of the compounds according to the invention.
(§2) Determination of the Kdapp:
(§3) In this study, a constant is determined which represents the affinity of the molecule for the receptor. Since this value can fluctuate depending on the basal activity and the expression of the receptor, it is referred to as the Kdapparent (KdApp).
(§4) To determine this constant, “crossed curves” of the test product against a reference agonist, 4-[2-(5,5,8,8-tetramethyl-5,6,7,8-tetrahydro-2-naphthyl)propenyl]benzoic acid, are performed in 96-well plates. The test product is used at 10 concentrations and the reference agonist at 7 concentrations. In each well, the cells are in contact with a concentration of the test product and a concentration of the reference agonist, 4-[2-(5,5,8,8-tetramethyl-5,6,7,8-tetrahydro-2-naphthyl)propenyl]benzoic acid. Measurements are also taken for the total agonist (4-[2-(5,5,8,8-tetramethyl-5,6,7,8-tetrahydro-2-naphthyl)propenyl]benzoic acid) and inverse agonist, 4-{(E)-3-[4-(4-tert-butylphenyl)-5,5,8,8-tetramethyl-5,6,7,8-tetrahydro-2-naphthyl]-3-oxopropenyl}benzoic acid, controls.
(§5) These crossed curves make it possible to determine the AC50 values (concentration at which 50% activation is observed) for the reference ligand at various concentrations of test product. These AC50 values are used to calculate the Schild regression by plotting a straight line corresponding to the Schild equation (“quantitation in receptor pharmacology” Terry P. Kenakin, Receptors and Channels, 2001, 7, 371-385).
(§6) In the case of an antagonist, an IC50 value (concentration that inhibits 50% of the activity) is calculated by plotting the curve of the product at the concentration of the reference ligand that gives 80% activation.
(§7) The HeLa cell lines used are stable transfectants containing the plasmids ERE-βGlob-Luc-SV-Neo (reporter gene) and RAR (α, β, γ) ER-DBD-puro. These cells are inoculated into 96-well plates at a rate of 10 000 cells per well in 100 μl of DMEM medium without phenol red, and supplemented with 10% defatted calf serum. The plates are then incubated at 37° C. and 7% CO2 for 4 hours.
(§8) The various dilutions of the test products, of the reference ligand (4-[2-(5,5,8,8-tetramethyl-5,6,7,8-tetrahydro-2-naphthyl)propenyl]benzoic acid), of the 100% control (100 nM 4-[2-(5,5,8,8-tetramethyl-5,6,7,8-tetrahydro-2-naphthyl)propenyl]benzoic acid) and of the 0% control (500 nM 4-{(E)-3-[4-(4-tert-butylphenyl)-5,5,8,8-tetramethyl-5,6,7,8-tetrahydro-2-naphthyl]-3-oxopropenyl}benzoic acid) are added at a rate of 5 μl per well. The plates are then incubated for 18 hours at 37° C. and 7% CO2.
(§9) The culture medium is removed by turning over and 100 μl of a 1:1 PBS/luciferine mixture is added to each well. After 5 minutes, the plates are read using the luminescence detector.
For orientation: A reporter such as luciferase makes a cellular process visible.

The target in another assay is T2, RAR gamma (Homo sapiens, UniProt P13631).
T2 sequence (P13631 185-419 limits assumed): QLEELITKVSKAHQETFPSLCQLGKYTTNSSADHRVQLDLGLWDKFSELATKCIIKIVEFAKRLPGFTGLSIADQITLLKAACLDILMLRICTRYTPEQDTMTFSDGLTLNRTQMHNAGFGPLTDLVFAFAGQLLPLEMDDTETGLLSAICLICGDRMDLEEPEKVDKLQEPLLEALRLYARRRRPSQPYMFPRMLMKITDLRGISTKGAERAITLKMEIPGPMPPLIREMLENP
The assay is described as follows: Transactivation test (luciferase reporter, HeLa cells), RAR gamma. The settings on record: HeLa stable transfectants; for Kd: Schild regression against reference agonist 4-[2-(5,5,8,8-tetramethyl-5,6,7,8-tetrahydro-2-naphthyl)propenyl]benzoic acid, read-out: RAR gamma Kdapp; for IC50: reference ligand at the concentration that gives 80% activation. As for the experimental part: as §1, §2, §3, §4, §5, §6, §7, §8, §9

A further assay addresses T3, RAR beta (Homo sapiens, UniProt P10826).
T3 sequence (P10826 183-417 limits assumed): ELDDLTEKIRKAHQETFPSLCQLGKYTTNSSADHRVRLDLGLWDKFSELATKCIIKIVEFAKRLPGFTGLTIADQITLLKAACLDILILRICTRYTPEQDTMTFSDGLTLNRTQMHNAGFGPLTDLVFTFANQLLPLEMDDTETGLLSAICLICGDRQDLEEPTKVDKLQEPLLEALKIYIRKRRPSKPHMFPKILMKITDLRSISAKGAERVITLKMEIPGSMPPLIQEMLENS
The assay is described as follows: Transactivation test (luciferase reporter, HeLa cells), RAR beta. The settings on record: HeLa stable transfectants; for Kd: Schild regression against reference agonist 4-[2-(5,5,8,8-tetramethyl-5,6,7,8-tetrahydro-2-naphthyl)propenyl]benzoic acid, read-out: RAR beta Kdapp; for IC50: reference ligand at the concentration that gives 80% activation. How it is done: as §1, §2, §3, §4, §5, §6, §7, §8, §9

By IC50 is commonly meant the concentration needed to halve the response being measured. A low value points to higher potency. Take `CC1(C)CCC(C)(C)c2c(OCc3cccc(F)c3)cc([Se]C#Cc3ccc(C(=O)O)cc3)cc21` [Ex 1, 4-[4-(3-fluorobenzyloxy)-5,5,8,8-tetramethyl-5,6,7,8-tetrahydro-2-naphthylselanylethynyl]benzoic acid]: the Kd at RAR alpha is 8 nM; on RAR gamma it was 2 nM; on RAR beta, 4 nM. Moreover, the IC50 was determined as 14 nM on RAR alpha, 5 nM at RAR gamma and 6.5 nM against RAR beta.

With `CC(C)(C)c1ccc(COc2cc([Se]C#Cc3ccc(C(=O)O)cc3)cc3c2C(C)(C)CCC3(C)C)cc1` [Ex 3, 4-[4-(4-tert-butylbenzyloxy)-5,5,8,8-tetramethyl-5,6,7,8-tetrahydro-2-naphthylselanylethynyl]benzoic acid], the Kd was determined as 15 nM on RAR alpha, 4 nM on RAR gamma and 30 nM at RAR beta. The IC50 against RAR alpha amounted to 26.3 nM; on RAR gamma, 10 nM; against RAR beta, 48 nM.

As to `CC1(C)CCC(C)(C)c2c(OCc3ccc(F)c(F)c3)cc([Se]C#Cc3ccc(C(=O)O)cc3)cc21` [Ex 4, 4-[4-(3,4-difluorobenzyloxy)-5,5,8,8-tetramethyl-5,6,7,8-tetrahydro-2-naphthylselanylethynyl]benzoic acid], the Kd came to 2 nM at RAR alpha, 1 nM at RAR gamma and 4 nM at RAR beta. Besides, the values for the IC50 against RAR alpha, against RAR gamma and against RAR beta were 3.5 nM, 2.5 nM and 6.4 nM, respectively.

Regarding `CC1(C)CCC(C)(C)c2c(OCc3ccc(F)cc3F)cc([Se]C#Cc3ccc(C(=O)O)cc3)cc21` [Ex 5, 4-[4-(2,4-difluorobenzyloxy)-5,5,8,8-tetramethyl-5,6,7,8-tetrahydro-2-naphthylselanylethynyl]benzoic acid], the Kd came to 2 nM at RAR alpha, 1 nM at RAR gamma and 1 nM at RAR beta. Further, the figures for the IC50 on RAR alpha, against RAR gamma and against RAR beta were 3.5 nM, 2.5 nM and 1.6 nM, respectively.

As for `Cc1cccc(COc2cc([Se]C#Cc3ccc(C(=O)O)cc3)cc3c2C(C)(C)CCC3(C)C)c1` [Ex 10, 4-[5,5,8,8-tetramethyl-4-(3-methylbenzyloxy)-5,6,7,8-tetrahydro-2-naphthylselanylethynyl]benzoic acid], the Kd on RAR alpha stood at 30 nM; at RAR gamma it was 4 nM; on RAR beta, 15 nM. Moreover, the IC50 against RAR alpha came to 52.5 nM; on RAR gamma, 10 nM; on RAR beta, 24 nM.

Regarding `CC1(C)CCC(C)(C)c2c(OCc3ccc(F)cc3)cc([Se]C#Cc3ccc(C(=O)O)cc3)cc21` [Ex 11, 4-[5,5,8,8-tetramethyl-4-(4-fluorobenzyloxy)-5,6,7,8-tetrahydro-2-naphthylselanylethynyl]benzoic acid], the Kd at RAR alpha was found to be 8 nM; at RAR gamma it was 1 nM; on RAR beta it was 4 nM. Moreover, the IC50 against RAR alpha is 14 nM; against RAR gamma it was 2.5 nM; on RAR beta it was 6.4 nM.

These data come from patent publication US7326803B2, “Ligand inhibitors of the RAR receptors, process for preparing same and therapeutic/cosmetic applications thereof” (Galderma Research & Development, priority 2002, dated 2008).
